Format in all cases: cell-based
For one data set, the system named is HIV-1 virus strain 20678. Description: Inhibition of infection of primary HIV-1 isolate 20678 in PBMCs (p24 antigen ELISA). As to conditions: for Selectivity Index: GI50 (Diff.CD34+) divided by EC50 (PBMC), values fit AVG GI50 / EC50 of virus 20678; for EC50: Human immunodeficiency virus 1, 192 h, PBMC infected with virus 20678, p24 production at day 8. The source says:
(§1) Monocyte/macrophages represent a major reservoir of HIV-1 in the infected human host. See L. Epstein et al., AIDS Res. 14, 447 (1984). However, these cells tend to be resistant to dideoxynucleoside prodrugs due to low levels of kinases needed to activate the prodrugs. See C. Pemo et al., J. Exp. Med. 168, 1111 (1984). To test the compounds described herein in these cells, PBMC cells infected for 7 days with two different virus strains (20678 and JR-FL) and under PHA stimulation for 4 days were treated with AZT, FOZ ISO 850, FOZ ISO 851, and FOZ MIX Na.
(§2) PBMC's were prepared as follows: 50 ml of whole human blood was centrifuged at 1000 g for 15 min, supernatant (plasma) removed, and cells resuspended in 80 ml PBS. 20 ml resuspended blood was then layered onto 25 ml Ficoll-Paque Plus (GE Healthcare, Uppsala Sweden), and centrifuged at 400 g for 30 min. The PBMC layer at the interface was collected, washed two times with 20 ml PBS, and resuspended in 20 ml RPMI/10% FBS.
(§3) Day 5-Stimulation of PBMC: PBMCs were grown in 50 ml of stimulation medium (RPMI, 15% FBS, 5 units/ml of IL-2, and 6 ug/ml of PHA) for 5 days.
(§4) Day 1-Infection of PBMC: PBMCs were counted with a hemacytometer. Stimulation medium was removed by centrifugation at RT, 1,500 rpm/5′ and cells resuspended in growth medium (RPMI, 15% of FBS, 10 units/ml of IL-2). PBMCs were infected with JR-FL or 20678 as follows: for one 96-well plate, 20 millions cells were infected with 1 ml of each virus (use 10 ul of virus and 200,000 cell per well) in a 4.5 ml-volume in a 50-ml conical tube. Cells were incubated for 3 hrs at 37 °C. with frequent shaking. Aliqouts of 50 ul of a 4× solution of the compounds to be tested were added to the 96-well plates. After 3 hr of incubation, infected cells were washed two times with PBS and one time with culture medium by spinning down the cells at 1500 rpm for 5 minutes at room temperature. After the last wash cells were resuspended in 15 ml of growth medium. 150 ul of cell suspension were delivered into each well. Cells were incubated for 7 days at 37 °C.
(§5) Day 5-Medium change: Cells were resuspended by pipetting and 100 ul of medium was removed. 100 ul of fresh medium was added with 1× compound. Cells were incubated for 3 more days at 37° C.
(§6) Day 8-p24 assay: At day 8 the p24 production was measured using the HIV-1 p24 Antigen ELISA (Zeptometrix) according to manufacturer instructions.

The test system of a further data set is Diff.CD34+. Kind of data set: Inhibition of cell growth (GI50) in Diff.CD34+ cells, 7-d.
A further data set has as its system HIV-1 virus strain JR-FL. Description: Inhibition of infection of primary HIV-1 isolate JR-FL in PBMCs (p24 antigen ELISA). The following applies: Human immunodeficiency virus 1, 192 h; PBMC infected with virus JR-FL, p24 production at day 8.
Text: as §1, §2, §3, §4, §5, §6

A short description of data set [1]: Inhibition of cell growth (GI50) in Diff.CD34+ cells, 7-d. The following applies: Diff.CD34+ cells.
Setting [2] is: 7-d, experiment of Aug. 6, 2007, concentration required for 50% inhibition of cell growth, read-out: GI50 (μM) Aug. 6, 2007 7-d.
The mark [3] stands for this setting: 7-d, experiment of Aug. 13 2007, concentration required for 50% inhibition of cell growth, read-out: GI50 (μM Aug. 13 2007 7-d).
[4] abbreviates: average of the two 7-d experiments, read-out: AVG GI50.

Each structure is given as a SMILES string. Counter-ions that a name gives are not always drawn. Like-named read-outs stand apart in the source and are kept apart here.

Consider `CCCCCCCCCCCCSC[C@@H](COP(=O)(O)OC[C@H]1O[C@@H](n2cc(C)c(=O)[nH]c2=O)C[C@@H]1N=[N+]=[N-])OCCCCCCCCCC` [FOZ ISO 851 Na, Phosphoric Acid (2S,3S,5R)-3-azido-5-(5-methyl-2,4-dioxo-3,4-dihydro-2H-pyrimidin-1-yl)-tetrahydro-furan-2-ylmethyl ester (R)-2-decyloxy-3-dodecylsulfanyl-propyl ester], for which the “Selectivity Index” value in the data set on HIV-1 virus strain 20678 is given as 4.5. The GI50 is 2.2 µM with Diff.CD34+ (setting [2]), more than 10 µM with Diff.CD34+ (setting [3]) and 2.2 µM in the data set with Diff.CD34+ (setting [4]).
Take `CCCCCCCCCCCCSCC(COP(=O)(O)OC[C@H]1O[C@@H](n2cc(C)c(=O)[nH]c2=O)C[C@@H]1N=[N+]=[N-])OCCCCCCCCCC` (stereo partly drawn) [FOZ ISO 850, Phosphoric Acid (2S,3S,5R)-3-azido-5-(5-methyl-2,4-dioxo-3,4-dihydro-2H-pyrimidin-1-yl)-tetrahydro-furan-2-ylmethyl ester 2-decyloxy-3-dodecylsulfanyl-propyl ester]: in the data set with HIV-1 virus strain 20678, the “Selectivity Index” value was 11.06. Besides, the EC50 with HIV-1 virus strain 20678 came out at 279 nM; with HIV-1 virus strain JR-FL it was 474 nM. Further, the GI50 with Diff.CD34+ (setting [2]) is 2.2 µM; in the data set on Diff.CD34+ (setting [3]) it was 4 µM; with Diff.CD34+ (setting [4]), 3.09 µM.
Consider `Cc1cn([C@H]2C[C@H](N=[N+]=[N-])[C@@H](CO)O2)c(=O)[nH]c1=O` [AZT, 3′-azido-3′-deoxythymidine, reference compound], for which the “Selectivity Index” value in the data set with HIV-1 virus strain 20678 is listed as 1.8. For the same molecule, the EC50 is 76 nM in the data set on HIV-1 virus strain 20678 and 89.8 nM in the data set on HIV-1 virus strain JR-FL. Besides, the GI50 at 7 d in data set [1] (setting [2]) amounted to 0.07 µM; in data set [1] (setting [3]), 0.2 µM; in data set [1] (setting [4]) it was 0.14 µM.
Regarding `CCCCCCCCCCCCSC[C@H](COP(=O)(O)OC[C@H]1O[C@@H](n2cc(C)c(=O)[nH]c2=O)C[C@@H]1N=[N+]=[N-])OCCCCCCCCCC` (mixture of isomers) [FOZ MIX Na, Phosphoric acid (2S,3S,5R)-3-azido-5-(5-methyl-2,4-dioxo-3,4-dihydro-2H-pyrimidin-1-yl)-tetrahydro-furan-2-ylmethyl ester (S)-2-decyloxy-3-dodecylsulfanyl-propyl ester sodium salt], the half-maximal effective concentration (EC50) in the data set with HIV-1 virus strain 20678 amounted to 1410 nM; in the data set on HIV-1 virus strain JR-FL, 1140 nM. The GI50 at 7 d in data set [1] (setting [2]) is 1.5 µM; in data set [1] (setting [3]), 2.2 µM; in data set [1] (setting [4]), 1.83 µM.
`CCCCCCCCCCCCSCC(COP(=O)(O)OC[C@H]1O[C@@H](n2cc(C)c(=O)[nH]c2=O)C[C@@H]1N=[N+]=[N-])OCCCCCCCCCC` (stereo partly drawn) [FOZ ISO 850 Na, Phosphoric Acid (2S,3S,5R)-3-azido-5-(5-methyl-2,4-dioxo-3,4-dihydro-2H-pyrimidin-1-yl)-tetrahydro-furan-2-ylmethyl ester 2-decyloxy-3-dodecylsulfanyl-propyl ester]: the “Selectivity Index” value in the data set with HIV-1 virus strain 20678 was found to be 14.3. Besides, the GI50 at 7 d in data set [1] (setting [2]) and in data set [1] (setting [4]) was 4 µM each time. The GI50 in the data set with Diff.CD34+ (setting [3]) is more than 10 µM.
Turning to `CCCCCCCCCCCCSC[C@@H](COP(=O)(O)OC[C@H]1O[C@@H](n2cc(C)c(=O)[nH]c2=O)C[C@@H]1N=[N+]=[N-])OCCCCCCCCCC` [FOZ ISO 851, Phosphoric Acid (2S,3S,5R)-3-azido-5-(5-methyl-2,4-dioxo-3,4-dihydro-2H-pyrimidin-1-yl)-tetrahydro-furan-2-ylmethyl ester (R)-2-decyloxy-3-dodecylsulfanyl-propyl ester], the “Selectivity Index” value in the data set on HIV-1 virus strain 20678 is on record as 3.5. For the same molecule, the EC50 worked out at 294 nM in the data set with HIV-1 virus strain 20678 and 504 nM in the data set with HIV-1 virus strain JR-FL. Moreover, the GI50 was determined as 0.85 µM in the data set with Diff.CD34+ (setting [2]), 1.2 µM in the data set with Diff.CD34+ (setting [3]) and 1.03 µM in the data set with Diff.CD34+ (setting [4]).

The term GI50 denotes the concentration giving 50% growth inhibition. As usually defined, the EC50 is the concentration needed to bring the measured effect to its halfway point.

The record behind these values is patent US20080249066A1, “ANTIVIRAL COMPOUNDS AND COMPOSITIONS” (ARDEA BIOSCIENCES, INC., priority 2007, published 2008).
